Data taken from patent publication US20230059136A1, “THE COMPOUNDS AND COMPOSITIONS FOR TREATING CONDITIONS ASSOCIATED WITH NLRP ACTIVITY” (Novartis AG, priority 2018, published 2023).

System: IL-1β production in PMA-differentiated THP-1 cells
Experiment: IL-1β production in PMA-differentiated THP-1 cells stimulated with gramicidin (hTHP-1 assay containing 2% fetal bovine serum)
Type: cell-based, human
Details: Homo sapiens, THP-1, Table B1; 2% fetal bovine serum; cells printed as numeric bound; read-out: hTHP-1 IC50 (Average IC50 of compounds in hTHP-1 assay)
How it was run: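 IL-1β release was read by HTRF on supernatants of 50,000 PMA-primed (20 ng/ml, 16-18 h) THP-1 cells/well in 2% FBS medium. Cells saw compound for 1 h (11-point titration from 100 μM, 0.37% DMSO) before a 2 h gramicidin (5 μM) challenge.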

| IC50 [µM] | SMILES |
| --- | --- |
| > 30 | CC(C)c1cc(F)cc(C(C)C)c1C(C)C(=O)N=S(N)(=O)c1cnc(C(C)(C)O)s1 (single isomer, unassigned) [Example 195, (R, R) or (R, S)-N-(amino (2-(2-hydroxypropan-2-yl)thiazol-5-yl)(oxo)-λ^6-sulfaneylidene)-2-(4-fluoro-2,6-diisopropylphenyl) propanamide] |
| > 30 | CC(C)c1cc(CCC2CCOCC2)cc(C(C)C)c1CC(=O)N=[S@](N)(=O)c1cc(C(C)(C)O)n(-c2ccccc2)n1 (single isomer, unassigned) [Example 235, (S) or (R)-N-(amino(5-(2-hydroxypropan-2-yl)-1-phenyl-1H-pyrazol-3-yl)(oxo)-λ^6-2-(2,6-diisopropyl-4-(2-(tetrahydro-2H-pyran-4-yl)ethyl)phenyl)acetamide] |
| > 30 | NS(=O)(=NC(=O)Cc1c2c(cc3c1CCC3)CCC2)c1cnn2c1OCCC2 (single isomer, unassigned) [Example 269, (R) or (S)-N-(amino(6,7-dihydro-5H-pyrazolo[5,1-b][1,3]oxazin-3-yl)(oxo)-λ^6-sulfaneylidene)-2-(1,2,3,5,6,7-hexahydro-s-indacen-4-yl)acetamide] |

Same assay, conditions: Homo sapiens, THP-1, Table B1; 2% fetal bovine serum; class symbols; read-out: hTHP-1 IC50 (Average IC50 of compounds in hTHP-1 assay)

| IC50 [µM] | SMILES |
| --- | --- |
| 1 to 5 | CC(C)c1cc2c(c(C(C)C)c1CC(=O)N=S(N)(=O)c1ccc(CN(C)C)cc1)COC2 (single isomer, unassigned) [Example 191, (R) or (S)-N-(amino(4-((dimethylamino)methyl)phenyl)(oxo)-λ^6-sulfaneylidene)-2-(4,6-diisopropyl-1,3-dihydroisobenzofuran-5-yl)acetamide] |
| 5 to 30 | CC(C)(O)c1ncc(S(N)(=O)=NC(=O)Cc2c(C3CC3)cc(F)cc2C(F)(F)F)s1 (single isomer, unassigned) [Example 196, (R) or (S)-N-(amino (2-(2-hydroxypropan-2-yl)thiazol-5-yl)(oxo)-λ^6-sulfaneylidene)-2-(2-cyclopropyl-4-fluoro-6-(trifluoromethyl)phenyl) acetamide] |
| 1 to 5 | CC(C)c1cc2c(c(C(C)C)c1CC(=O)N=S(N)(=O)c1cnc(C(C)(C)O)s1)CCC2 (single isomer, unassigned) [Example 213, (S) or (R)-N-(amino(2-(2-hydroxypropan-2-yl)thiazol-5-yl)(oxo)-λ^6-sulfaneylidene)-2-(4,6-diisopropyl-2,3-dihydro-1H-inden-5-yl)acetamide] |
| 5 to 30 | CC(C)c1cc(CCC2CCOCC2)cc(C(C)C)c1CC(=O)N=S(N)(=O)c1cc(C(C)(C)O)n(-c2ccccc2)n1 (single isomer, unassigned) [Example 234, (R) or (S)—N-(amino(5-(2-hydroxypropan-2-yl)-1-phenyl-1H-pyrazol-3-yl)(oxo)-λ^6-sulfaneylidene)-2-(2,6-diisopropyl-4-(2-(tetrahydro-2H-pyran-4-yl)ethyl)phenyl)acetamide] |
| 5 to 30 | NS(=O)(=NC(=O)Cc1c2c(cc3c1CCC3)CCC2)c1cnn2c1OCCC2 (single isomer, unassigned) [Example 270, (S) or (R)-N-(amino(6,7-dihydro-5H-pyrazolo[5,1-b][1,3]oxazin-3-yl)(oxo)-λ^6-sulfaneylidene)-2-(1,2,3,5,6,7-hexahydro-s-indacen-4-yl)acetamide] |

Same assay, conditions: Table B1; 2% fetal bovine serum; class symbols; read-out: hTHP-1 IC50 (Average IC50 of compounds in hTHP-1 assay)

| IC50 [µM] | SMILES |
| --- | --- |
| 5 to 30 | COCc1cc(C(C)C)c(CC(=O)N=S(N)(=O)c2ncc(C(C)(C)O)s2)c(C(C)C)c1 (single isomer, unassigned) [Example 186, (S) or (R)-N-(amino(5-(2-hydroxypropan-2-yl)thiazol-2-yl)(oxo)-λ^6-sulfaneylidene)-2-(2,6-diisopropyl-4-(methoxymethyl)phenyl)acetamide] |
| 5 to 30 | CC(C)c1ccc(F)c(C(C)C)c1CC(=O)N=S(N)(=O)c1ncc(C(C)(C)O)s1 (single isomer, unassigned) [Example 187, (S) or (R)-N-(amino(5-(2-hydroxypropan-2-yl)thiazol-2-yl)(oxo)-λ^6-sulfaneylidene)-2-(3-fluoro-2,6-diisopropylphenyl) acetamide] |
| 0.2 to 1 | CC(C)c1ccc(F)c(C(C)C)c1CC(=O)N=S(N)(=O)c1ncc(C(C)(C)O)s1 (single isomer, unassigned) [Example 188, (R) or (S)-N-(amino(5-(2-hydroxypropan-2-yl)thiazol-2-yl)(oxo)-λ^6-sulfaneylidene)-2-(3-fluoro-2,6-diisopropylphenyl) acetamide] |
| 1 to 5 | CC(C)c1cc(C#N)c(F)c(C(C)C)c1CC(=O)N=S(N)(=O)c1nc(C(C)(C)O)cs1 (single isomer, unassigned) [Example 189, (S) or (R)-N-(amino(4-(2-hydroxypropan-2-yl)thiazol-2-yl)(oxo)-λ^6-sulfaneylidene)-2-(4-cyano-3-fluoro-2,6-diisopropylphenyl) acetamide] |
| 0.04 to 0.2 | CC(C)c1cc(C#N)c(F)c(C(C)C)c1CC(=O)N=S(N)(=O)c1nc(C(C)(C)O)cs1 (single isomer, unassigned) [Example 190, (R) or (S)-N-(amino(4-(2-hydroxypropan-2-yl)thiazol-2-yl)(oxo)-λ^6-sulfaneylidene)-2-(4-cyano-3-fluoro-2,6-diisopropylphenyl) acetamide] |
| 0.2 to 1 | CC(C)c1nc(-c2cccc(C(F)(F)F)c2)c(F)c(C(C)C)c1CC(=O)N=S(N)(=O)c1cnc(C(C)(C)O)s1 (single isomer, unassigned) [Example 202, N-(amino(2-(2-hydroxypropan-2-yl)thiazol-5-yl)(oxo)-λ^6-sulfaneylidene)-2-(5-fluoro-2,4-diisopropyl-6-(3-(trifluoromethyl)phenyl)pyridin-3-yl) acetamide] |
| 5 to 30 | CC(C)c1nc(-c2cccc(C(F)(F)F)c2)c(F)c(C(C)C)c1CC(=O)N=S(N)(=O)c1cnc(C(C)(C)O)s1 (single isomer, unassigned) [Example 203, (S) or (R)-N-(amino (2-(2-hydroxypropan-2-yl)thiazol-5-yl)(oxo)-λ^6-sulfaneylidene)-2-(5-fluoro-2,4-diisopropyl-6-(3-(trifluoromethyl)phenyl)pyridin-3-yl) acetamide] |
| 0.04 to 0.2 | CC(C)c1ncc(F)c(C(C)C)c1CC(=O)N=S(N)(=O)c1cc(C(C)(C)O)cs1 (single isomer, unassigned) [Example 208, N-(amino(4-(2-hydroxypropan-2-yl)thiophen-2-yl)(oxo)-λ^6-sulfaneylidene)-2-(5-fluoro-2,4-diisopropylpyridin-3-yl)acetamide] |
| 1 to 5 | CC(C)c1ncc(F)c(C(C)C)c1CC(=O)N=S(N)(=O)c1cc(C(C)(C)O)cs1 (single isomer, unassigned) [Example 209, (S) or (R)-N-(amino(4-(2-hydroxypropan-2-yl)thiophen-2-yl)(oxo)-λ^6-sulfaneylidene)-2-(5-fluoro-2,4-diisopropylpyridin-3-yl)acetamide] |
| 5 to 30 | CC(C)c1ncc(F)c(C(C)C)c1CC(=O)N=S(N)(=O)c1sc(C(C)(C)O)cc1F (single isomer, unassigned) [Example 210, (S) or (R)-N-(amino (3-fluoro-5-(2-hydroxypropan-2-yl)thiophen-2-yl)(oxo)-λ^6-sulfaneylidene)-2-(5-fluoro-2,4-diisopropylpyridin-3-yl)acetamide] |
| 0.2 to 1 | CC(C)c1ncc(F)c(C(C)C)c1CC(=O)N=S(N)(=O)c1sc(C(C)(C)O)cc1F (single isomer, unassigned) [Example 211, N-(amino(3-fluoro-5-(2-hydroxypropan-2-yl)thiophen-2-yl)(oxo)-λ^6-sulfaneylidene)-2-(5-fluoro-2,4-diisopropylpyridin-3-yl)acetamide] |
| 0.04 to 0.2 | CC(C)c1cc(C(F)F)cc(C(C)C)c1CC(=O)N=S(N)(=O)c1ccc(CN(C)C)cc1F (single isomer, unassigned) [Example 214, (R) or (S)-N-(amino(4-((dimethylamino)methyl)-2-fluorophenyl) (oxo)-λ^6-sulfaneylidene)-2-(4-(difluoromethyl)-2,6-diisopropylphenyl) acetamide] |
| 1 to 5 | CC(C)c1cc(C(F)F)cc(C(C)C)c1CC(=O)N=S(N)(=O)c1ccc(CN(C)C)cc1F (single isomer, unassigned) [Example 215, (S) or (R)-N-(amino(4-((dimethylamino)methyl)-2-fluorophenyl) (oxo)-λ^6-sulfaneylidene)-2-(4-(difluoromethyl)-2,6-diisopropylphenyl) acetamide] |
| 0.2 to 1 | CC(C)c1cc2c(c(C(C)C)c1CC(=O)N=S(N)(=O)c1cc(C(C)(C)O)cs1)COC2 (single isomer, unassigned) [Example 216, (R) or (S)-N-(amino (4-(2-hydroxypropan-2-yl)thiophen-2-yl)(oxo)-λ^6-sulfaneylidene)-2-(4,6-diisopropyl-1,3-dihydroiso-benzofuran-5-yl)acetamide] |
| 5 to 30 | CC(C)c1cc2c(c(C(C)C)c1CC(=O)N=S(N)(=O)c1cc(C(C)(C)O)cs1)COC2 (single isomer, unassigned) [Example 217, (S) or (R)-N-(amino (4-(2-hydroxypropan-2-yl)thiophen-2-yl)(oxo)-λ^6-sulfaneylidene)-2-(4,6-diisopropyl-1,3-dihydro-isobenzofuran-5-yl)acetamide] |
| 0.2 to 1 | CC(C)c1cc(-c2ccc3c(c2)CCOC3)cc(C(C)C)c1CC(=O)N=S(N)(=O)c1sc(C(C)(C)O)nc1CO (single isomer, unassigned) [Example 271, (R) or (S)-N-(amino(4-(hydroxymethyl)-2-(2-hydroxypropan-2-yl)thiazol-5-yl)(oxo)-λ^6-sulfaneylidene)-2-(4-(isochroman-6-yl)-2,6-diisopropylphenyl) acetamide] |
